What was measured:
Bmf = Bmf protein level by flow cytometry in RA T cells; format: cell-based, human; conditions: treated vs untreated
Method: (§1) FIG. 8. The DNA-PKcs-JNK pathway upregulates the apoptogenic molecules Bim and Bmf in RA CD4+ T cells. CD4+CD45RO− T cells were isolated from the peripheral blood of 6 controls and 6 RA patients. Cells were maintained in culture without mitogenic stimulation for 72 h. (A) Puma, Noxa, Bim and Bmf transcript levels in freshly isolated cells were quantified by qPCR. Data are presented as mean±SEM. (B) Flow cytometry analysis of Bim levels in control and RA naïve T cells after 72 h of culture. Expression of Bim protein in n=5 RA and n=5 controls samples is given as MFI of Alexa Fluor 488 Bim. (C) Flow cytometry analysis of Bmf levels in control and RA naïve T cells. Expression of Bmf protein in n=6 RA and n=4 controls samples is given as MFI of PE Bmf. (D) Bcl-2 protein levels were analyzed by flow cytometry. Expression of Bcl-2 protein in n=6 RA and n=6 control samples is given as MFI of FITC Bcl-2. (E) Bim protein level in the absence and presence of the DNA-PKcs inhibitor were analyzed by flow cytometry in samples from 4 RA patients. […]
(§2) For intracellular staining, cells were fixed directly with 1.5% formaldehyde for 10 min at room temperature and resuspended in 90% methanol. […] Proteins or 8-oxoguanine expression were detected by an LSRII flow cytometer (BD Biosciences). Data were analyzed by FlowJo software (Tree Star Inc., Ashland, Oreg.). […]

[1] = tested on: CD4+CD45RO− T cells from control donors; test: T-cell apoptosis by flow cytometry staining for PI, control T cells; format: cell-based, human
Method: FIG. 5. Inhibition of DNA-PKcs activity protects RA T cells from apoptosis. CD4+CD45RO− T cells were isolated from 6 control donors and 7 RA patients. Cells were maintained in culture without stimulation for 48 h and then were treated with the DNA-PKcs inhibitor IC86621 (50 nM, 100 nM) or vehicle for 24 h. Cells were harvested and (A) T-cell apoptosis was measured by flow cytometry staining for PI. Representative cytometric data from one patient and one control are shown. (B) Frequencies of PI-positive T-cells in the absence and presence of the DNA-PKcs inhibitor from 6 controls and 7 RA patients are presented as mean±SEM.
Peripheral blood mononuclear cells (PBMC) were separated from whole blood with Lymphocyte Separation Medium (Mediatech Inc., Herndon, Va.). CD45RO^− cells were negatively selected with microbeads (Miltenyi Biotec Inc., Auburn, Calif.), and the naïve CD4^+CD45RO^− population was subsequently selected with CD4 microbeads (autoMACS, Miltenyi Biotec Inc.). […]
To quantify T-cell apoptosis, CD4^+CD45RO^− cells were washed and suspended in 500 μl FACS buffer supplemented with EasyComp Blank Particles (Spherotech, Lake Forest, Ill.). Uptake of PI (Sigma-Aldrich) was determined by flow cytometry. Apoptotic cells were detected with PE-Annexin V (BD Biosciences, San Jose, Calif.) and 7-AAD (BD Biosciences).

Bim = Bim protein level by flow cytometry in RA T cells; format: cell-based, human; conditions: treated vs untreated
Method: as §1, §2

ATR = ATR (Homo sapiens, UniProt Q13535); conditions: concentrations of up to 100 μM; cited from earlier work
Sequence of ATR (Q13535 whole entry): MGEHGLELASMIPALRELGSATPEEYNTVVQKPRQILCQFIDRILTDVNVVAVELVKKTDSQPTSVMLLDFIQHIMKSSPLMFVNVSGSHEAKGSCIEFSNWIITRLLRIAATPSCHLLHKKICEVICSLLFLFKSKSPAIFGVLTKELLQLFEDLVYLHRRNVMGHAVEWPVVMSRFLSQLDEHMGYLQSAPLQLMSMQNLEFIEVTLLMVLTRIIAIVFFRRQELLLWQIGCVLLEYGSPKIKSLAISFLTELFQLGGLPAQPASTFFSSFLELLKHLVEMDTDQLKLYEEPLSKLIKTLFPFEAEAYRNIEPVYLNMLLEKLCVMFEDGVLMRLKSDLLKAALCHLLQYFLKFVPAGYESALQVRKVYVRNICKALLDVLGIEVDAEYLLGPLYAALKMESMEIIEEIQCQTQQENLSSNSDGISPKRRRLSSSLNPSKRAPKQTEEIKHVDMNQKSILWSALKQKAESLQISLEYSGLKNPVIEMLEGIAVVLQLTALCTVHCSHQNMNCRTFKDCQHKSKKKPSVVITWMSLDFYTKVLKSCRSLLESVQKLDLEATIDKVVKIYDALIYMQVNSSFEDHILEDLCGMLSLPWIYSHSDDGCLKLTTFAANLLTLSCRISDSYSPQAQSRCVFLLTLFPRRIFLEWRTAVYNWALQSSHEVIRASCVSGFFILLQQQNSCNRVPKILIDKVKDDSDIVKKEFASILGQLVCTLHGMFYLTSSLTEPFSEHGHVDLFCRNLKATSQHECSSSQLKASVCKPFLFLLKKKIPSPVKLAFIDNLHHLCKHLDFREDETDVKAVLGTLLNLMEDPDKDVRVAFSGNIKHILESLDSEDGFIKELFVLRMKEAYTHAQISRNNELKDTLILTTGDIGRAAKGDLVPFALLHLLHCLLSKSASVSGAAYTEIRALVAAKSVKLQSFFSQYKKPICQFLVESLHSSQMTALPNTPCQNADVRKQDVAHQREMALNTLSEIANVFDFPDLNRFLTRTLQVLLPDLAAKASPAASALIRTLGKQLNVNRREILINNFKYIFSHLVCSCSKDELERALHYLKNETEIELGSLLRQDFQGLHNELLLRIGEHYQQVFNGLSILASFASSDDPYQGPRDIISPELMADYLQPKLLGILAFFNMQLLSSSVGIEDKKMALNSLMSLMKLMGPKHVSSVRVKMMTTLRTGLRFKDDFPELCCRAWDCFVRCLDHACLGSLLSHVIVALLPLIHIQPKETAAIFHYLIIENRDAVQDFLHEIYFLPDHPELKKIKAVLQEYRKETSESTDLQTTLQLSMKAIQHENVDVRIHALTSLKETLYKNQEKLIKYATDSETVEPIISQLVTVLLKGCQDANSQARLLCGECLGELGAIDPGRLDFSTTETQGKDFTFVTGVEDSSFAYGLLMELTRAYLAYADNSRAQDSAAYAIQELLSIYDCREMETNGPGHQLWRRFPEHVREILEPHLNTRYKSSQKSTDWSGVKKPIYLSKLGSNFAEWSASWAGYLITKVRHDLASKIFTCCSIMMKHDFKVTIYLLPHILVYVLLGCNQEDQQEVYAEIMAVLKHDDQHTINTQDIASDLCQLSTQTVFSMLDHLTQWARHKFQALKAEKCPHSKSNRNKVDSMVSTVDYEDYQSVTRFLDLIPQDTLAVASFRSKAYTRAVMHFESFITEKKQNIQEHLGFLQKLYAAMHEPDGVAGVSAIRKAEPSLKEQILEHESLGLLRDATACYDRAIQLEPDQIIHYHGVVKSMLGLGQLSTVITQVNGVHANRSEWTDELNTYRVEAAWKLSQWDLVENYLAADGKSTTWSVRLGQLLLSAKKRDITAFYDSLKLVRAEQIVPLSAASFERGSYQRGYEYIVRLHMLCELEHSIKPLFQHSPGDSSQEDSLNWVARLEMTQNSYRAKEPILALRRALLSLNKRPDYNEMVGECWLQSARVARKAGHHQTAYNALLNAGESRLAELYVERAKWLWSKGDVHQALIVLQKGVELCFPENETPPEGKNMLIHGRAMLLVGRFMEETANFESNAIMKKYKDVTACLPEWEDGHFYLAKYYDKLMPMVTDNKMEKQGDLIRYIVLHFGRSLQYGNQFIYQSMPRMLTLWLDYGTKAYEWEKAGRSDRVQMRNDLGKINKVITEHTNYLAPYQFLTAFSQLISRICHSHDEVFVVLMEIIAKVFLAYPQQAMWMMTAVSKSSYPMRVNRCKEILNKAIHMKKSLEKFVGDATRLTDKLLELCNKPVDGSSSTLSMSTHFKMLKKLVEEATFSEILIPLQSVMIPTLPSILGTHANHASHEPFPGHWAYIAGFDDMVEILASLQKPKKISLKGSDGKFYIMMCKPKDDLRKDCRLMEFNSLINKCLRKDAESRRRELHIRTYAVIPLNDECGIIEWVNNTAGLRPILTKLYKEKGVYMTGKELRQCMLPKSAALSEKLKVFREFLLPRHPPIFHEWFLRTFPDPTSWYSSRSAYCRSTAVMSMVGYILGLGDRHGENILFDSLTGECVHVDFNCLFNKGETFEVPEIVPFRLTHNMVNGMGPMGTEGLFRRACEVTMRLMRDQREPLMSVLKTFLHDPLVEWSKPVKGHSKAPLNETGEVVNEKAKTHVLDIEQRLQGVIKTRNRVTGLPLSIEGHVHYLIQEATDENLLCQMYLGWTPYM
Sequence of ATR (Q8WXE1 whole entry partner): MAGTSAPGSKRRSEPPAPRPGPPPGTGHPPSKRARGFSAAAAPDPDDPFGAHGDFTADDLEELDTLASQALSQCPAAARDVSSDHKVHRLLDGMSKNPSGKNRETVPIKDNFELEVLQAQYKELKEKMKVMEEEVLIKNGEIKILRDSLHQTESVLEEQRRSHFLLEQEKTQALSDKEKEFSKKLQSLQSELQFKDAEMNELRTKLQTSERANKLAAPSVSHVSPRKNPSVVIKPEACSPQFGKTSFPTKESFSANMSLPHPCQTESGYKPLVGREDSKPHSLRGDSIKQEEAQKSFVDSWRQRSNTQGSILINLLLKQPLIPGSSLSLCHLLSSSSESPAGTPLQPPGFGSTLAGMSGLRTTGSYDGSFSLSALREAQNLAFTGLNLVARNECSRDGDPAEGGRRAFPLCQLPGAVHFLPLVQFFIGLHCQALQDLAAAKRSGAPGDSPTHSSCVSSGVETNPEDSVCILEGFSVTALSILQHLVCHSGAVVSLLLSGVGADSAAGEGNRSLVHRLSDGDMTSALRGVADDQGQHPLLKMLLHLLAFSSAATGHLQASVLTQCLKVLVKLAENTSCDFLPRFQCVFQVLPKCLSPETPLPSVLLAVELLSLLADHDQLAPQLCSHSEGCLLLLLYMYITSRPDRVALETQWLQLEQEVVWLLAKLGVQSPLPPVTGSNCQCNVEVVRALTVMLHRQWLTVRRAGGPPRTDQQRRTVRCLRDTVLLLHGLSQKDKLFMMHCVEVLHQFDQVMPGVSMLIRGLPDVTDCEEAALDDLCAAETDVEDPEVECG

For `CC(=O)c1ccc(N2CCOCC2)cc1O` [IC86621, 1-(2-hydroxy-4-morpholin-4-ylphenyl)ethanone], which “intracellular Bmf levels” value (Bmf) is on record?
Its value is “reduced”.

What about the “apoptotic control T cells” value ([1]; after 72 h of ex vivo culture, independent from treatment with the inhibitor) of the same compound?
Its value is 12-14%.

And the “survival in control T cells” value ([1]; control T cells, inhibitor 50 nM, 100 nM for 24 h)?
The value was “essentially did not affect survival”.

And the “intracellular Bim levels” value (Bim)?
Its value is “reduced”.

What about the “activity against ATR” value (ATR) of the same compound?
Its value is “neither activity”.

Reference: patent publication US9511086B2, “Method for improving immune system function by administering agents that inhibit DNA-dependent protein kinase-directed apoptosis” (The Board of Trustees of the Leland Stanford Junior …, priority 2010, dated 2016)
